Source: DBAASP
≈ marks a conversion by molar mass, not a printed value.

Assays:
Assay in all cases: ≥ marks a high value that may be exact or a test limit, other limits are often not marked, values filed in µg/mL are converted to µM
[1] = tested on: Candida albicans NCYC 1467
[2] = tested on: Escherichia coli NCTC 10418
[3] = tested on: Staphylococcus aureus NCTC 10788
[4] = tested on: Pseudomonas aeruginosa ATCC 27853
[5] = tested on: Pseudomonas aeruginosa
[6] = tested on: Staphylococcus aureus NCTC 12493
[7] = tested on: Staphylococcus aureus
[8] = tested on: Bacillus subtilis CMCC 63501
[9] = tested on: Enterococcus faecalis ATCC 29212
[10] = tested on: Escherichia coli ATCC 25922
[11] = tested on: Escherichia coli UB1005
[12] = tested on: Salmonella enterica subsp. enterica serovar Pullorum C79-13
[13] = tested on: Salmonella enterica subsp. enterica serovar Typhimurium C77-31
[14] = tested on: Staphylococcus aureus ATCC 29213
[15] = tested on: Staphylococcus aureus ATCC 43300
[16] = tested on: Staphylococcus epidermidis ATCC 12228
[17] = tested on: Bacillus subtilis ATCC 23857
[18] = tested on: Candida albicans ATCC 90028
[19] = tested on: Cryptococcus neoformans ATCC 28957
[20] = tested on: Burkholderia cepacia ATCC 25416
[21] = tested on: Pseudomonas aeruginosa H547
[22] = tested on: Pseudomonas aeruginosa H744
[23] = tested on: Pseudomonas aeruginosa K799
[24] = tested on: Pseudomonas aeruginosa Z61
[25] = tested on: Salmonella enterica subsp. enterica serovar Typhimurium ATCC 14028s
[26] = tested on: Mycobacterium tuberculosis H37Rv
[27] = tested on: Pseudomonas aeruginosa H187

Question: Which MIC [1] does the source give for `CC[C@H](C)[C@H](NC(=O)[C@H](CCCCN)NC(=O)[C@H](CCCCN)NC(=O)[C@H](Cc1c[nH]c2ccccc12)NC(=O)[C@H](CC(C)C)NC(=O)[C@H](C)N)C(=O)N[C@@H](CC(C)C)C(=O)N[C@@H](CCCCN)C(=O)N[C@@H](CC(N)=O)C(=O)N[C@@H](C)C(=O)NCC(=O)N[C@@H](CCCCN)C(=O)N[C@@H](C)C(=O)N[C@@H](C)C(=O)N[C@@H](CC(C)C)C(=O)N[C@@H](CC(N)=O)C(=O)N[C@@H](CCCCN)C(=O)N[C@H](C(=O)N[C@@H](CC(N)=O)C(=O)N[C@@H](CCC(N)=O)C(=O)N[C@H](C(=O)N[C@H](C(=O)N[C@@H](CCC(N)=O)C(N)=O)C(C)C)[C@@H](C)CC)[C@@H](C)CC` [ALWKKILKNAGKAALNKINQIVQ] here?
Answer: 4 µM (≈ 10.2 µg/mL)

Question: And the MIC [2]?
Answer: 8 µM (≈ 20.5 µg/mL)

Question: And the MIC [3]?
Answer: 8 µM (≈ 20.5 µg/mL)

Question: How did the MIC [1] turn out when `CC[C@H](C)[C@@H]1NC(=O)[C@@H](NC(=O)[C@H](Cc2ccccc2)NC(=O)[C@H](C)NC(=O)[C@H](CCCCN)NC(=O)[C@H](CCCCN)NC(=O)[C@H](CC(C)C)NC(=O)[C@H](CC(C)C)NC(=O)[C@H](Cc2ccccc2)NC(=O)[C@@H](NC(=O)[C@H](CO)NC(=O)[C@@H]2CCCN2C(=O)[C@@H](NC(=O)[C@@H](NC(=O)[C@@H](N)Cc2ccccc2)[C@@H](C)CC)C(C)C)[C@@H](C)CC)CSSC[C@@H](C(=O)O)NC(=O)[C@H](CCCCN)NC(=O)[C@H](CCCCN)NC(=O)[C@H](CC(C)C)NC(=O)[C@H](C)NC1=O` [FIVPSIFLLKKAFCIALKKC] was run?
Answer: 4 µM (≈ 9.12 µg/mL)

Question: What about the MIC [2] of the same compound?
Answer: 16 µM (≈ 36.5 µg/mL)

Question: And the MIC [4]?
Answer: > 512 µM

Question: What about the MIC [5] of the same compound?
Answer: > 512 µM

Question: What about the MIC [3] of the same compound?
Answer: 4 µM (≈ 9.12 µg/mL)

Question: And the MIC [6]?
Answer: 4 µM (≈ 9.12 µg/mL)

Question: What about the MIC [7] of the same compound?
Answer: 8 µM (≈ 18.2 µg/mL)

Question: How did the MIC [8] turn out when `CC[C@H](C)[C@H](NC(=O)[C@H](CCCN=C(N)N)NC(=O)[C@H](CCCCN)NC(=O)[C@H](Cc1ccccc1)NC(=O)[C@H](CCC(=O)O)NC(=O)[C@H](CCCCN)NC(=O)CN)C(=O)N[C@H](C(=O)N[C@@H](Cc1c[nH]c2ccccc12)C(=O)N[C@@H](CC(C)C)C(=O)N[C@@H](CO)C(=O)N[C@@H](CCCCN)C(=O)N[C@H](C(=O)N[C@@H](C)C(=O)N[C@@H](CCCCN)C(=O)N[C@@H](CCCCN)C(=O)N[C@@H](CC(C)C)C(N)=O)[C@@H](C)O)C(C)C` [GKEFKRIVWLSKTAKKL] was run?
Answer: ≥ 128 µM

Question: What about the MIC [9] of the same compound?
Answer: > 128 µM

Question: What about the MIC [10] of the same compound?
Answer: 32 µM (≈ 65 µg/mL)

Question: And the MIC [11]?
Answer: ≥ 128 µM

Question: And the MIC [4]?
Answer: > 128 µM

Question: What about the MIC [12] of the same compound?
Answer: 16 µM (≈ 32.5 µg/mL)

Question: And the MIC [13]?
Answer: ≥ 128 µM

Question: What about the MIC [14] of the same compound?
Answer: > 128 µM

Question: What about the MIC [15] of the same compound?
Answer: > 128 µM

Question: And the MIC [16]?
Answer: > 128 µM

Question: `CC[C@H](C)[C@H](N)C(=O)N[C@H](C(=O)N[C@@H](CC(N)=O)C(=O)N[C@@H](Cc1cnc[nH]1)C(=O)N[C@@H](CC(C)C)C(=O)N[C@H](C(=O)N[C@@H](CCCCN)C(=O)N[C@@H](CC(C)C)C(=O)N[C@@H](Cc1ccccc1)C(=O)N[C@@H](CC(=O)O)C(=O)N[C@@H](CCCCN)C(=O)NCC(=O)N[C@@H](CC(C)C)C(=O)N[C@@H](CC(N)=O)C(=O)N[C@@H](CO)C(=O)N[C@H](C(=O)N[C@H](C(=O)N[C@@H](CC(N)=O)C(=O)N[C@@H](CC(C)C)C(=O)N[C@@H](CCCN=C(N)N)C(N)=O)C(C)C)[C@@H](C)CC)C(C)C)C(C)C` [IVNHLVKLFDKGLNSIVNLR] was tested. Which MIC [17] did it give?
Answer: ≥ 64 µM

Question: And the MIC [18]?
Answer: ≥ 128 µM

Question: What about the MIC [19] of the same compound?
Answer: ≥ 128 µM

Question: What does the source list for `CC[C@H](C)[C@H](NC(=O)CNC(=O)[C@@H](NC(=O)[C@H](CCCCN)NC(=O)[C@H](CCCCN)NC(=O)[C@H](Cc1ccccc1)NC(=O)[C@H](CC(C)C)NC(=O)[C@@H](N)CCCCN)[C@@H](C)CC)C(=O)NCC(=O)N[C@@H](C)C(=O)N[C@H](C(=O)N[C@@H](CC(C)C)C(=O)N[C@@H](CCCCN)C(=O)N[C@H](C(=O)N[C@@H](CC(C)C)C(=O)N[C@H](C(=O)N[C@H](C(=O)NCC(=O)N[C@@H](CC(C)C)C(=O)N1CCC[C@H]1C(=O)N[C@@H](C)C(=O)N[C@@H](CC(C)C)C(=O)N[C@@H](CCCCN)C(=O)N[C@@H](CC(C)C)C(=O)N[C@H](C(=O)N[C@@H](CC(C)C)C(=O)N[C@@H](CCCCN)C(=O)O)[C@@H](C)O)[C@@H](C)O)[C@@H](C)O)C(C)C)C(C)C` [KLFKKIGIGAVLKVLTTGLPALKLTLK]?
Answer: MIC [20]: 22.3 µM (≈ 64 µg/mL); MIC [11]: 1.75 µM (≈ 5 µg/mL); MIC [21]: 11.2 µM (≈ 32 µg/mL); MIC [22]: 1.4 µM (≈ 4 µg/mL); MIC [23]: 11.2 µM (≈ 32 µg/mL); MIC [24]: 6.63 µM (≈ 19 µg/mL); MIC [25]: 10.1 µM (≈ 29 µg/mL)

Question: How did the MIC [26] turn out when `CSCC[C@H](NC(=O)[C@H](CCC(=O)O)NC(=O)[C@H](CCCN=C(N)N)NC(=O)[C@@H](N)CCCCN)C(=O)N[C@@H](CCCCN)C(=O)N[C@@H](CCCN=C(N)N)C(=O)N1CCC[C@H]1C(=O)NCC(=O)N[C@@H](CCCCN)C(=O)NCC(=O)N[C@@H](CC(N)=O)C(=O)N[C@@H](CCCN=C(N)N)C(=O)N[C@@H](CC(N)=O)C(=O)N[C@@H](CC(N)=O)C(=O)N[C@@H](Cc1c[nH]c2ccccc12)C(=O)N[C@@H](CCCCN)C(=O)N[C@@H](CCCCN)C(=O)N[C@@H](CCC(=O)O)C(=O)N[C@@H](Cc1ccc(O)cc1)C(=O)O` [KREMKRPGKGNRNNWKKEY] was run?
Answer: ≥ 82.7 µM

Question: `CC[C@H](C)[C@H](NC(=O)[C@H](CC(C)C)NC(=O)[C@H](C)NC(=O)[C@@H]1CCCN1C(=O)[C@H](CC(C)C)NC(=O)CNC(=O)[C@@H](NC(=O)[C@@H](NC(=O)[C@H](CC(C)C)NC(=O)[C@@H](NC(=O)[C@H](CCCCN)NC(=O)[C@H](CCCCN)NC(=O)[C@@H](NC(=O)[C@H](C)NC(=O)[C@@H](NC(=O)[C@@H](NC(=O)[C@H](CC(C)C)NC(=O)[C@H](CCCCN)NC(=O)[C@H](CCCCN)NC(=O)[C@@H](NC(=O)[C@H](Cc1ccccc1)NC(=O)[C@H](CCC(=O)O)NC(=O)[C@H](CCCCN)NC(=O)[C@H](Cc1c[nH]c2ccccc12)NC(=O)[C@@H](N)CCCCN)[C@@H](C)CC)[C@@H](C)O)[C@@H](C)O)C(C)C)C(C)C)[C@@H](C)O)[C@@H](C)O)C(=O)N[C@@H](CO)C(=O)O` [KWKEFIKKLTTAVKKVLTTGLPALIS] was tested. Which MIC [11] did it give?
Answer: 0.823 µM (≈ 2.4 µg/mL)

Question: What about the MIC [27] of the same compound?
Answer: 1.65 µM (≈ 4.8 µg/mL)

Question: How did the MIC [20] turn out when `CC[C@H](C)[C@H](NC(=O)[C@H](CC(C)C)NC(=O)[C@H](C)NC(=O)[C@H](CC(C)C)NC(=O)[C@@H]1CCCN1C(=O)[C@H](CCCCN)NC(=O)[C@H](C)NC(=O)[C@@H](NC(=O)[C@@H](NC(=O)[C@@H](NC(=O)[C@@H](NC(=O)[C@H](CCCCN)NC(=O)[C@H](CCCCN)NC(=O)[C@H](C)NC(=O)[C@H](C)NC(=O)[C@H](CO)NC(=O)[C@@H](NC(=O)[C@H](CC(C)C)NC(=O)[C@H](CCCCN)NC(=O)[C@H](CCCCN)NC(=O)[C@@H](NC(=O)[C@H](Cc1ccccc1)NC(=O)[C@H](CO)NC(=O)[C@H](CCCCN)NC(=O)[C@H](Cc1c[nH]c2ccccc12)NC(=O)[C@@H](N)CCCCN)[C@@H](C)CC)[C@@H](C)O)C(C)C)C(C)C)[C@@H](C)O)[C@@H](C)O)C(=O)N[C@@H](CO)C(=O)O` [KWKSFIKKLTSAAKKVVTTAKPLALIS] was run?
Answer: 21.6 µM (≈ 64 µg/mL)

Question: And the MIC [11]?
Answer: 0.676 µM (≈ 2 µg/mL)

Question: And the MIC [21]?
Answer: 5.41 µM (≈ 16 µg/mL)

Question: What about the MIC [22] of the same compound?
Answer: 0.676 µM (≈ 2 µg/mL)

Question: What about the MIC [23] of the same compound?
Answer: 1.35 µM (≈ 4 µg/mL)

Question: And the MIC [24]?
Answer: 1.35 µM (≈ 4 µg/mL)

Question: What about the MIC [25] of the same compound?
Answer: 1.69 µM (≈ 5 µg/mL)

Question: Which MIC [11] does the source give for `CC[C@H](C)[C@H](NC(=O)[C@H](Cc1ccccc1)NC(=O)[C@H](CO)NC(=O)[C@H](CCCCN)NC(=O)[C@H](Cc1c[nH]c2ccccc12)NC(=O)[C@@H](N)CCCCN)C(=O)N[C@@H](CCCCN)C(=O)N[C@@H](CC(N)=O)C(=O)N[C@@H](CC(C)C)C(=O)N[C@@H](CCC(=O)O)C(=O)N[C@@H](CCCCN)C(=O)N[C@H](C(=O)N[C@@H](CC(C)C)C(=O)N[C@@H](CCCCN)C(=O)N1CCC[C@H]1C(=O)NCC(=O)NCC(=O)N[C@@H](CC(C)C)C(=O)N[C@@H](CC(C)C)C(=O)N[C@@H](CO)C(=O)N[C@@H](CC(N)=O)C(=O)N[C@H](C(=O)N[C@H](C(=O)N[C@H](C(=O)N[C@@H](CO)C(=O)N[C@@H](CC(C)C)C(=O)O)[C@@H](C)O)C(C)C)[C@@H](C)CC)C(C)C` [KWKSFIKNLEKVLKPGGLLSNIVTSL] here?
Answer: 0.343 µM (≈ 1 µg/mL)

Question: What about the MIC [27] of the same compound?
Answer: 2.75 µM (≈ 8 µg/mL)
